# Like-named read-outs stand apart in the source and are kept apart here.
# Assays:
# insulin = assay: Plasma insulin levels in model rats (ELISA); format: in vivo, rat; settings: 1.5 and 4.5 mg/kg, fasted, glucose load and random plasma
# Description: (§1) To establish model of T2DM, male rats (80–100 g, 9-week-old)[49] were fed high fat diet (HFD) (20% sugar, 10% lard, 10% egg yolk and 60% basal feed) after a week of normal diet. After 4 weeks, rats were injected once with low-dose streptozotocin (Solarbio, China) (STZ, 30 mg/kg i.p) to induce partial insulin deficiency, and then continuously fed HFD for 4 weeks after injection of STZ. Then the model rats were oral administrated drugs for 30 days. The body weights were recorded once a week.
# (§2) Oral glucose load, fasted and random blood samples were collected from rats on the 28th days, the 29th days and the last of the treatment of drugs, respectively. Plasma levels of insulin and GLP-1 were measured by ELISA kits (YuanYe, China) according to the manufacturer’s recommendation. The levels of HbA1c, Triglycerides (TG), total cholesterol (TC) and low density lipoprotein cholesterol (LDL-C) in blood samples were measured by commercial assay kits (JianCheng, Nanjing, China) according to the manufacturer’s directions.
# HbA1c = HbA1c level in blood of model rats; format: in vivo, rat; settings: 30 days
# Description: as §1, §2
# recombinant human DPP-IV = target: T1, recombinant human DPP-IV (Homo sapiens, UniProt P27487); assay: Recombinant human DPP-IV activity assay; format: biochemical; settings: Gly-Pro-MCA substrate, read-out: IC50 of DPP-IV inhibition
# T1 construct: purchased R&D systems, USA
# T1 sequence (P27487 whole entry): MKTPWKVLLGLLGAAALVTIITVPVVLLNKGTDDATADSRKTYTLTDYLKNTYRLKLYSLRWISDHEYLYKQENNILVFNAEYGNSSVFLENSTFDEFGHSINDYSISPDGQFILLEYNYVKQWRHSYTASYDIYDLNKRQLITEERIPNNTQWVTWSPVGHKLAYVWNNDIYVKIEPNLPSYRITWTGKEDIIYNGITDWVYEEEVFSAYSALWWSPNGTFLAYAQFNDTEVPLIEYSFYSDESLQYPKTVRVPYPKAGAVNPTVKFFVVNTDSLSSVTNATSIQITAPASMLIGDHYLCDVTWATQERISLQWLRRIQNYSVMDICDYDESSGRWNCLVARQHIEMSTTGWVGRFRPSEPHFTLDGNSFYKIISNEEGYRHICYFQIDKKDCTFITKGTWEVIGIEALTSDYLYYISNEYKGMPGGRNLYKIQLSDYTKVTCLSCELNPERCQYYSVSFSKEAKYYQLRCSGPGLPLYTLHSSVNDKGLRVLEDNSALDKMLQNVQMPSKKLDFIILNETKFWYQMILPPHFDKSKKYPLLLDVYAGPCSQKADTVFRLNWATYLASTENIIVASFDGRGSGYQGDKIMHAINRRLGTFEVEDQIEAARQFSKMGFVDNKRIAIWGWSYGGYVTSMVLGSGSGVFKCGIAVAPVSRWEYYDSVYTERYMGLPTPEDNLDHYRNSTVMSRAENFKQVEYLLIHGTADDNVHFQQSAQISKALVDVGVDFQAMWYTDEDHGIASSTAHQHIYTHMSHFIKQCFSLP
# Description: DPP-IV inhibition assay was carried out using either 5 ng purified recombinant human DPP-IV (rhDPP-IV) (R&D systems, USA). Recombinant DPP-IV was mixed with ddH2O in an assay buffer (25 mM Tris-HCl, 0.2 M NaCl, 0.1% BSA, pH 7.3). […] The vehicle comprised 1% DMSO in place of test compounds. […] The fluorescence intensity of AMC corresponded to DPP-IV activity.
# INS-1 cells = assay: Apoptosis of INS-1 cells induced by STZ (Annexin V/PI flow cytometry); format: cell-based, rat; settings: STZ-induced, 1, 10, 100 μM, 36 h, concentration dependent
# Description: The INS cells were seeded into 6-well culture plates at 3 × 10^4 cells per ml and incubated at 37 °C for 24 h. […] After incubated for 36 h, apoptosis was assessed by flow cytometry using the Annexin V-FITC/ propidium iodide (Annexin V/PI) apoptosis detection kit according to the manufacturer’s protocol.
# [1] = Body weight of model rats; format: in vivo, rat; settings: 30 days treatment
# Description: as §1
# GLP-1 = assay: Plasma GLP-1 levels in model rats (ELISA); format: in vivo, rat; settings: 4.5 mg/kg, glucose load and random plasma
# Description: as §1, §2
# Pharmacokinetics in rats = format: in vivo, rat
# Description: Male SD rats (200–220 g) were fasted overnight to administration of CMD-05 intravenously via tail vein (50 mg/kg, n = 4) or by oral gavage (50 mg/kg, n = 4). Blood samples of 0.3 ml were collected from the orbital venous at 1 min, 3 min, 5 min, 15 min, 30 min, 60 min, 120 min, 240 min, 480 min, 720 min after tail vein injection of CMD-05 and at 15 min, 30 min, 45 min, 60 min, 120 min, 240 min, 480 min, 720 min after oral of CMD-05. Plasma was obtained after centrifugation. The concentrations of CMD-05 in plasma were determined by HPLC method. The pharmacokinetic parameters of CMD-05 in the rats were analyzed by DAS2 software.
# HT22 cells = assay: Cytotoxicity in HT22 cells (CCK-8); format: cell-based; settings: 3 × 10^−6 to 3 × 10^−5 M, 12 h
# Description: The toxicities of CMD-05 on HT22, 293 and […] cell lines was assessed using Cell Counting Kit-8 (CCK-8) (Biosharp, China). Briefly, the cells were plated on 96-well plates. […] The absorbance at 450 nm was measured using a microplate spectrophotometer.
# plasma DPP-IV = target: T2, plasma DPP-IV (Rattus norvegicus, UniProt P14740); assay: Plasma DPP-IV activity determination in model rats; format: in vivo
# T2 construct: from tissue; host or cells: plasma of Sprague-Dawley rats
# T2 sequence (P14740 whole entry): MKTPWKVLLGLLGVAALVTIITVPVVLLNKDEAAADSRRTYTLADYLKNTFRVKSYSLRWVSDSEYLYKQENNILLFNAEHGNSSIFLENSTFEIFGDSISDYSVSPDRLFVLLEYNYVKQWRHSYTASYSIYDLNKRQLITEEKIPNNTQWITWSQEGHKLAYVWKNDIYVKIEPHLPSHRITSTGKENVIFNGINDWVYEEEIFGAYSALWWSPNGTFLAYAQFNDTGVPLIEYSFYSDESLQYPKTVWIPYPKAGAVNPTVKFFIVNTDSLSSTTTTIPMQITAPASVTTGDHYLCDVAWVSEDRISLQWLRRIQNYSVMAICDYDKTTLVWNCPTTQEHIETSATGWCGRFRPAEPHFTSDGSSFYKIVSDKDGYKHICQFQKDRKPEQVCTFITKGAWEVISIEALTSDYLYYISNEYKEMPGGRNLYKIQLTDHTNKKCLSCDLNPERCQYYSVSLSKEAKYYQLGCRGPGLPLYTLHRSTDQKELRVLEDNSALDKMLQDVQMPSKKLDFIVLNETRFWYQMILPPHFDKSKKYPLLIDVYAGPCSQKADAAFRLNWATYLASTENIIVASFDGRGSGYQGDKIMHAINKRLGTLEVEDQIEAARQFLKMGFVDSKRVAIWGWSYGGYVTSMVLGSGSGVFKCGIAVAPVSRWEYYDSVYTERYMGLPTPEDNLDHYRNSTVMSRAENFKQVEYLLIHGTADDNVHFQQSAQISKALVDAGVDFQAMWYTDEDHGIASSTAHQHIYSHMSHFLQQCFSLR
# [2] = test system: model rats (HFD/low-dose STZ, T2DM); assay: Oral glucose tolerance test (OGTT) in HFD/STZ T2DM model rats; format: in vivo, rat; settings: for percentage reduction of blood glucose levels in OGTT: model rats
# Description: as §1
# On the 1st day, 19th days and 29th days of treatment, oral glucose tolerance tests for model rats were carried out. […] The blood glucose levels were tested using Johnson one touch Ultra Test Strips on Johnson Performa blood glucose meter.
# [3] = fasted plasma, read-out: plasma DPP-IV inhibition rate
# [4] = glucose load plasma, read-out: plasma DPP-IV inhibition
# [5] = random plasma, read-out: plasma DPP-IV inhibition
smiles,measurement,setting,value
N#C[C@@H]1CCCN1C(=O)CN(C(=O)CCCCCl)C12CC3CC(CC(O)(C3)C1)C2 [CMD-05],insulin levels in plasma,insulin,significantly increased
same,reduction of the level of HbA1c,HbA1c; 1.5 mg/kg,1.0%
same,reduction of the level of HbA1c,HbA1c; 4.5 mg/kg,2.2%
same,IC50,recombinant human DPP-IV,12 nM
same,apoptosis of INS-1 cells,INS-1 cells,reduce of apoptosis
same,body weights vs model group,[1],no significant difference
same,levels of GLP-1 in plasma,GLP-1,significantly increased
same,effect of food on pharmacokinetics,Pharmacokinetics in rats; healthy rats,not affected by food
same,half-life,"Pharmacokinetics in rats; male, SD, rat, plasma, oral, 50 mg/kg, rats, 50 mg/kg, read-out: half-life",4.8 h
same,Tmax,"Pharmacokinetics in rats; male, SD, rat, plasma, po, 50 mg/kg, rats, single oral 50 mg/kg, read-out: time to peak plasma concentration (converted)",0.5 h
same,bioavailability,"Pharmacokinetics in rats; male, SD, rat, plasma, rats, 50 mg/kg oral vs intravenous, read-out: absolute bioavailability",84.5%
same,half-life,"Pharmacokinetics in rats; rats, 50 mg/kg",4.798 ± 0.437 h
same,time to peak plasma concentration,"Pharmacokinetics in rats; rats, single oral 50 mg/kg, 50 mg/kg",30 to 45 min
same,cytotoxicity (cell viability),HT22 cells,did not induce significant cytotoxicity
same,inhibition at 0.5 mg/kg,plasma DPP-IV; [3],~20%
same,inhibition at 1.5 mg/kg,plasma DPP-IV; [3],~30%
same,inhibition at 4.5 mg/kg,plasma DPP-IV; [3],~50%
same,inhibition at 0.5 mg/kg,plasma DPP-IV; [4],~10%
same,inhibition at 1.5 mg/kg,plasma DPP-IV; [4],~20%
same,inhibition at 4.5 mg/kg,plasma DPP-IV; [4],~70%
same,inhibition at 0.5 mg/kg,plasma DPP-IV; [5],~20%
same,inhibition at 1.5 mg/kg,plasma DPP-IV; [5],~30%
same,inhibition at 4.5 mg/kg,plasma DPP-IV; [5],~55%
same,percentage reduction of blood glucose levels in OGTT,"[2]; 1.5 mg/kg oral, 1st day",8.0%
same,percentage reduction of blood glucose levels in OGTT,"[2]; 1.5 mg/kg oral, 19th day",9.22%
same,percentage reduction of blood glucose levels in OGTT,"[2]; 1.5 mg/kg oral, 29th day",17.8%
same,percentage reduction of blood glucose levels in OGTT,"[2]; 4.5 mg/kg oral, 1st day",9.7%
same,percentage reduction of blood glucose levels in OGTT,"[2]; 4.5 mg/kg oral, 19th day",12.2%
same,percentage reduction of blood glucose levels in OGTT,"[2]; 4.5 mg/kg oral, 29th day",21.9%
same,AUC (area under the blood glucose curve) in OGTT,"[2]; 1st, 19th and 29th day, vs model group",significant decrease

# From publication PMC5390258, “CMD-05, a novel promising clinical anti-diabetic drug candidate, in vivo and vitro studies” (Scientific Reports, 2017)
